We go through four compounds from article PMC8659091, “Preparation, Characterization, and Bioavailability of Host-Guest Inclusion Complex of Ginsenoside Re with Gamma-Cyclodextrin” (Molecules, 2021).

Read-outs that look alike come from different tables or passages of the source.

Data set [1] can be described thus: Phase solubility study of G-Re with CDs in water. The conditions noted are these: for stability constant Ks: G-Re with the CD, 1:1 stoichiometry; for △G: Gibbs free energy change of complexation with G-Re, ΔG = −RTln Ks; for Ks: apparent stability constant of G-Re with the CD, Ks=slope/S0(1-slope); for Ks / 1/Slope / Slope: water, 25 °C; for 1/Slope: phase solubility of G-Re; for Slope: slope of phase solubility curve of G-Re vs CD concentration. The class given is physicochemical. As for the experimental part:
Phase solubility studies were performed in water in accordance with the method formerly stated by Higuchi and Connors. In brief, an excess amount of G-Re was supplemented into 10 mL Eppendorf tubes with aqueous solution, including various concentrations of α-CD, β-CD, and γ-CD, respectively. Suspensions were vigorously shaken in 25 °C water bath for a week. After equilibrium was reached, the solutions were centrifuged for 5 min at 4000 rpm (1500 g). Meanwhile, a 0.22 μm membrane was used to further filter the supernatant. The filtrate was diluted and HPLC was employed to determine G-Re content.
The phase solubility curves were obtained with the regression of the concentrations of cyclodextrin (mol L^−1) as X-axis and the concentration of G-Re (mol L^−1) as Y-axis. The value of apparent stability constant (Ks) was defined by using the straight-line portion in the phase-solubility to the equation as follows: Ks=slope/S0(1-slope)
In this formula, R can be seen as the general gas constant, which equaled 8.314 J/mol K, and T can be considered as the experimental operating temperature.
(§1) The contents of G-Re from the dissolution sample and phase solubility sample were determined with the help of HPLC on the C18 column (Ascentis® Express, 10 cm × 2.1 mm, 2.6 μm, Sigma, USA), which was installed an Agilent system. This system consisted of a micro degasser, an auto plate sampler, a system binary pump, as well as a thermostatically controlled column apartment at 30 °C. Samples were separated under elution conditions at A (acetonitrile) and B (water) = 19: 81 (v/v). Then, the flow rate was set at 0.5 mL per minute and the injection volume at 5 μL, while the G-Re was detected spectrophotometrically at 205 nm.

On the set-up of data set [2]: method as in PMID 22314249, PMID 25197955, PMID 19729261. The conditions noted are these: after oral administration; cited from earlier work.
The nature of data set [3]: Pharmacokinetic / bioavailability study after single oral administration, plasma LC-MS/MS. The class given is in vivo, Sprague-Dawley rats. The conditions noted are these: rats, 100 mg/kg, mean ± SD. As for the experimental part:
The animal studies carried out in this study strictly followed the instructions of the Animal Care and Use Committee of the Changchun university of Chinese medicine (Approval Number: 20190030). Adult male Sprague-Dawley rats (200-220 g; Yisi Experimental Animal Technology Co., Ltd., Changchun, China Approved number: SCXK (JI) 2018-0007) were used for the pharmacokinetic studies. All rats were not allowed to be fed for 24 h before the oral dosing and likewise after the drug administration. Besides, all of them needed to be brought up under a controlled temperature ranging from 20 to 24 °C with a 12-h light/dark cycle. G-Re powder and G-Re-γ-CD complex were suspended in double-distilled water prior to use at 100 mg/kg. […] The blood samples were centrifuged for 10 min at 4000 rpm to harvest the plasma sample (100 μL). Then, the G-Rf (10 μL, 10 ng/mL) was added into each tube rapidly to work as the inherent criterion. After that, a mixed 0.5 mL methanol-acetonitrile (60:40, v/v) should be added for precipitating proteins and extracting interested compounds. The samples were then rotated for 3 min and centrifuged at 15,000×grams for 10 min. By separating and evaporating, the supernatant was obtained on the condition that the nitrogen flow dried gently at 40 °C. Additionally, the residue was reconstituted by vortexing for 1 min with 0.2 mL methanol-water (80:20, v/v). Furthermore, the supernatant was transferred into auto-sampler vials using 5 μL aliquot to inject to the LC-MS/MS system. This method could be carried out by a combination of a Thermo TSQ Endura triple-quadrupole tandem mass spectrometer (Thermo Fisher Inc., Waltham, USA), which is a method named electrospray ionization (ESI), and an Ultimate 3000 LC system which is composed of a vacuum degasser, a quaternary pump, as well as an auto-sampler. Xcalibur 2.2 (SP1.48) software was used to acquire and analyze the data (Thermo Fisher Inc., Waltham, USA). After that, the separation of chemical materials was conducted by using the reverse-phase Accucore C18 analytical column (100 mm × 2.1 mm, 2.6 μm, Thermo Fisher Inc., Waltham, USA). This column was available for the linear gradient elution by using the mobile phase, which consisted of water embracing 0.1% formic acid (A) and acetonitrile (B). Steps are described as follows: 0 min (A 75%-B 25%)-5.0 min (A 70%-B 30%)-8 min (A 68%-B 32%)-9 min (A 64%-B 36%)-16 min (A 63%-B 37%)-16.8 min (A 52%-B 48%)-17.8 min (A 30%-B 70%)-18.8 min (A 10%-B 90%)-20.8 min (A 75%-B 25%)-25 min (A 75%-B 25%). The flow rate should be 0.2 mL per minute, and the volume of injection needed to be 5 μL. This process needed to be performed using the ESI negative ionization and multiple reactions monitoring (MRM) mode. Furthermore, the parameters of spray voltage were 3 kV, the parameters of capillary temperature was 325 °C, and the pressure of nitrogen sheath gas and auxiliary gas were 30 arb and 10 arb. The formic acid adduct [M+HCOO]- is the dominant parent ion of products. […] Finally, the ion transition situations for multiple reactions monitoring (MRM) were m/z 945.5→637.3 and 637.3→475.3 for G-Re, m/z 799.5→637.3 and 637.3→475.3 for IS. After oral administration, non-compartment approaches could be utilized [NT]-Re's t pharmacokinetic parameters. The part under the plasma concentration-time curve increasing from 0 to infinity (AUC0→∞) could be computed by the equation AUC0→∞ = AUCt + Ct/k. In this equation, Ct could be seen as the last concentration which could be quantized, and the calculation of k could be conducted by a straight-line's slope in plasma disappearance's terminal phase. […] Furthermore, with the help of linear trapezoidal approximation, it was easy to calculate the area below the plasma concentration-time curve increasing from 0 to the time of the last quantifiable concentration (AUCt). The calculation of bioavailability value for G-Re's oral doses needed to be conducted according to the AUC's dose-adjusted ratio. […]

Data set [4] can be described thus: Dissolution test in water (rotatory-basket method). The class given is physicochemical. The conditions noted are these: at 30 min, 37 °C, 100 rpm, 20 mg as Re in 200 mL. As for the experimental part: G-Re, G-Re-γ-CD physical mixtures, and the G-Re-γ-CD ICs (20 mg as Re) were inserted into a basket in a automatic dissolution testing system (RC806D, Tianjin Tianda Technology Co.,Ltd, Tianjin, China) containing 200 mL of water according to the dissolution method (Chp. 2020 Vol II Addium XC rotatory-basket method). The speed was set at 100 rpm, and the temperature was 37 ± 0.5 °C. Then an equal amount of solution (1 mL) needed to be taken at timepoints of 5, 15, 30, 45, and 60 min; at the same time, 1 mL solution should be replaced. As described below, the determination of G-Re concentration by 205 nm high-performance liquid chromatography was feasible. The G-Re concentration was detected with the same HPLC method applied in the phase solubility test.
as §1

Where [5] appears, read: male, Sprague-Dawley, rat, plasma, n = 6.

As for `OC[C@H]1O[C@@H]2O[C@H]3[C@H](O)[C@@H](O)[C@@H](O[C@H]4[C@H](O)[C@@H](O)[C@@H](O[C@H]5[C@H](O)[C@@H](O)[C@@H](O[C@H]6[C@H](O)[C@@H](O)[C@@H](O[C@H]7[C@H](O)[C@@H](O)[C@@H](O[C@H]8[C@H](O)[C@@H](O)[C@@H](O[C@H]1[C@H](O)[C@H]2O)O[C@@H]8CO)O[C@@H]7CO)O[C@@H]6CO)O[C@@H]5CO)O[C@@H]4CO)O[C@@H]3CO` [β-CD], in data set [1], the “stability constant Ks” value was determined as 612 M⁻¹, the “△G” value is -3.7976 kcal/mol, the Ks came out at 612 M⁻¹ and the 1/Slope worked out at 5.16. The Slope in data set [1] is 0.1935.
By AUC(0-inf) is commonly meant the area under the concentration-time curve extrapolated to infinity. As a reminder, the Cmax is the highest concentration seen after dosing. As usually defined, the MRT is a mean duration of stay, worked out from the concentration-time curve. Broadly, the half-life is the time needed for the level to fall by half in the phase considered. As for `CC(C)=CCC[C@](C)(O[C@@H]1O[C@H](CO)[C@@H](O)[C@H](O)[C@H]1O)[C@H]1CC[C@]2(C)[C@@H]1[C@H](O)C[C@@H]1[C@@]3(C)CC[C@H](O)C(C)(C)[C@@H]3[C@@H](O[C@@H]3O[C@H](CO)[C@@H](O)[C@H](O)[C@H]3O[C@@H]3O[C@@H](C)[C@H](O)[C@@H](O)[C@H]3O)C[C@]12C` [G-Re, Ginsenoside Re], in data set [2], the bioavailability entry is “low” and the tmax result is reported as “short”. In addition, in data set [3] (setting [5]), the area under the curve AUC(0-inf) amounted to 130 ± 54.1 ng·h/mL, the Cmax is 32.2 ± 8.15 ng/mL, the MRT worked out at 5.15 ± 0.968 h and the half-life was 12.2 ± 1.56 h. For the same compound, the tmax in data set [3] (setting [5]) was 1.02 ± 0.036 h. In data set [3] (male, Sprague-Dawley, rat, plasma, n = 6, called AUC0–t, read-out: AUC0–24h), the AUC(0-t) turned out to be 113 ± 44.6 ng·h/mL. For the same compound, in data set [3] (n = 6), the CLt stood at 2.401 ± 0.52 L/h and the Vdss amounted to 13.691 ± 3.74 L/kg. Moreover, the dissolution rate in data set [4] came to 6.73%.
As for `OC[C@H]1O[C@@H]2O[C@H]3[C@H](O)[C@@H](O)[C@@H](O[C@H]4[C@H](O)[C@@H](O)[C@@H](O[C@H]5[C@H](O)[C@@H](O)[C@@H](O[C@H]6[C@H](O)[C@@H](O)[C@@H](O[C@H]7[C@H](O)[C@@H](O)[C@@H](O[C@H]8[C@H](O)[C@@H](O)[C@@H](O[C@H]9[C@H](O)[C@@H](O)[C@@H](O[C@H]1[C@H](O)[C@H]2O)O[C@@H]9CO)O[C@@H]8CO)O[C@@H]7CO)O[C@@H]6CO)O[C@@H]5CO)O[C@@H]4CO)O[C@@H]3CO` [γ-CD], the “inclusion constant relative to that of α-CD” value in data set [1] (G-Re as guest) is 655 times. Also, in data set [1], the “△G” value is -5.673 kcal/mol, the Ks amounted to 14410 M⁻¹, the 1/Slope stood at 1.18 and the Slope worked out at 0.8494.
With `OC[C@H]1O[C@@H]2O[C@H]3[C@H](O)[C@@H](O)[C@@H](O[C@H]4[C@H](O)[C@@H](O)[C@@H](O[C@H]5[C@H](O)[C@@H](O)[C@@H](O[C@H]6[C@H](O)[C@@H](O)[C@@H](O[C@H]7[C@H](O)[C@@H](O)[C@@H](O[C@H]1[C@H](O)[C@H]2O)O[C@@H]7CO)O[C@@H]6CO)O[C@@H]5CO)O[C@@H]4CO)O[C@@H]3CO` [α-CD], in data set [1], the “stability constant Ks” value stood at 22 M⁻¹, the “△G” value was -1.831 kcal/mol, the Ks was found to be 22 M⁻¹ and the 1/Slope worked out at 116.28. Besides, the Slope in data set [1] was 0.0086.
